Measurements: publication PMC9829398 (Plant Biotechnology Journal, 2022)
“Also recorded” adds a separate entry of the source.

Experiments:
THE1‐CD = assay: THE1-CD kinase activity (autophosphorylation); assay type: biochemical, Arabidopsis thaliana; conditions: 5 μM
Ralstonia solanacearum [1] = assay type: in vivo, tobacco; conditions: roots pretreated twice with 3 mL of 5 μM
tobacco = assay: Growth of tobacco (shoot and root fresh weight, Day 25); conditions: 5 μM irrigated twice
Ralstonia solanacearum [2] = assay type: in vivo, tomato; conditions: roots pretreated twice with 3 mL of 5 μM
[3] = system: Arabidopsis Col‐0 and fer‐4 seedlings; assay: Growth of Arabidopsis seedlings (root length, shoot fresh weight); conditions: 5 μM for 3 days, vs ddH2O (mock) and lapatinib
[4] = system: FER cytoplasmic domain (FER‐CD); assay: FER-CD kinase activity (autophosphorylation), high-throughput screening, Kinase-Lumi luminescent ATP consumption; assay type: biochemical, Arabidopsis thaliana; conditions: in vitro autophosphorylation
Ralstonia solanacearum [5] = assay type: in vivo; conditions: Arabidopsis seedlings pretreated with 5 μM, 4 days after inoculation
Meloidogyne incognita [6] = assay: Rice root-knot nematode disease, preventive root treatment; assay type: in vivo; conditions: roots pretreated twice with 3 mL of 5 μM, 800 pre-J2s
HERK1‐CD = assay: HERK1-CD kinase activity (autophosphorylation); assay type: biochemical, Arabidopsis thaliana; conditions: 5 μM
ANJEA‐CD = assay: ANJEA-CD kinase activity (autophosphorylation); assay type: biochemical, Arabidopsis thaliana; conditions: 5 μM
Meloidogyne incognita [7] = assay: Established rice root-knot nematode disease (inhibitor applied after inoculation); assay type: in vivo; conditions: irrigated three days after inoculation
FER‐CD = FER‐CD (Arabidopsis thaliana, UniProt Q9SCZ4); assay: biochemical
Sequence of FER‐CD (Q9SCZ4 469-895): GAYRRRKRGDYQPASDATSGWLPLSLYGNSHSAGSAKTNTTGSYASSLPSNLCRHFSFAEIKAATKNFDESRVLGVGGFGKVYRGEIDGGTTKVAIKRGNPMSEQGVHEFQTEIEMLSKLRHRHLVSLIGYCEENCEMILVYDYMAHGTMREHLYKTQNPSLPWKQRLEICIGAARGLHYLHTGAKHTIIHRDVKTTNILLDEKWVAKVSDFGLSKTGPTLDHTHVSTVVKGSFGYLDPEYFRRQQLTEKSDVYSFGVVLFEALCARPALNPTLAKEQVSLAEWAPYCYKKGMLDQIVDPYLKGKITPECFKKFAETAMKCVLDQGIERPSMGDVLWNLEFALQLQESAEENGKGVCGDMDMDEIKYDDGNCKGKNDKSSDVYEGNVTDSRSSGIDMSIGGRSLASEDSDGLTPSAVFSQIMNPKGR

O=C(O)c1cc(N(Cc2ccccc2O)Cc2cc(O)ccc2O)ccc1O [Lavendustin A]
Inhibition rate of THE1-CD kinase activity (THE1‐CD): lower than 55%
Control of tobacco bacterial wilt (Ralstonia solanacearum [1]): alleviated tobacco bacterial wilt; also recorded: alleviated soil‐borne diseases
Growth (biomass) of tobacco shoots and roots (tobacco): significantly improved the growth of tobacco shoots and roots
Control of tomato bacterial wilt (Ralstonia solanacearum [2]): best control effect; also recorded: alleviated soil‐borne diseases
Growth of roots and shoots of Arabidopsis Col-0 seedlings [3]: significantly promoted root and shoot growth
Effect on FER kinase activity [4]: inhibited the kinase activity of FER
Cotyledon bleaching caused by R. solanacearum (Ralstonia solanacearum [5]): effectively prevented the cotyledon bleaching
Control of rice root-knot nematode disease (Meloidogyne incognita [6]): better preventive effects than staurosporine; also recorded: alleviated soil‐borne diseases
Inhibition rate of HERK1-CD kinase activity (HERK1‐CD): lower than 55%
Inhibition rate of ANJEA-CD kinase activity (ANJEA‐CD): lower than 55%
Effect on established rice root-knot nematode disease (Meloidogyne incognita [7]): could not completely prevent the occurrence of the diseases or cure already diseased plants
Kd (FER‐CD): 2690 nM

c1nc2nc(Nc3ccc(N4CCOCC4)cc3)nc(NC3CCCCC3)c2[nH]1 [Reversine]
Inhibition rate of THE1-CD kinase activity (THE1‐CD): lower than 55%
Control of tobacco bacterial wilt (Ralstonia solanacearum [1]): alleviated tobacco bacterial wilt; also recorded: alleviated soil‐borne diseases
Growth (biomass) of tobacco shoots and roots (tobacco): did not observably affect the biomass
Control of tomato bacterial wilt (Ralstonia solanacearum [2]): alleviated soil‐borne diseases
Growth of roots and shoots of Arabidopsis Col-0 seedlings [3]: did not affect the growth of roots and shoots
Effect on FER kinase activity [4]: inhibited the kinase activity of FER
Cotyledon bleaching caused by R. solanacearum (Ralstonia solanacearum [5]): effectively prevented the cotyledon bleaching
Control of rice root-knot nematode disease (Meloidogyne incognita [6]): better preventive effects than staurosporine; also recorded: alleviated soil‐borne diseases
Inhibition rate of HERK1-CD kinase activity (HERK1‐CD): lower than 55%
Inhibition rate of ANJEA-CD kinase activity (ANJEA‐CD): lower than 55%
Effect on established rice root-knot nematode disease (Meloidogyne incognita [7]): could not completely prevent the occurrence of the diseases or cure already diseased plants
Kd (FER‐CD): 1770 nM
